Laboratory results published in patent US20230144824A1, “1H-PYRAZOLO[4,3-d]PYRIMIDINE COMPOUNDS AS TOLL-LIKE RECEPTOR 7 (TLR7) AGONISTS” (BRISTOL-MYERS SQUIBB COMPANY, priority 2020, published 2023).
Where two headings read alike, the source gives them in different places.

Columns and labels:
CD69 = test: Induction of CD69 in human whole blood; format: cell-based; settings: 100% set to 1 uM of resiquimod, average where assay performed multiple times, read-out: hWB CD69 EC50
How it was run: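 Heparinized human whole blood treated with TLR7 agonist at final 1 uM and incubated 17 h at 37° C. CD69 surface staining alongside CD14 and CD19, then fix/lysis and flow cytometry on iQuePlus. Curves fitted with 1 uM resiquimod set as 100%.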

human TLR7 = molecular target: T1, human TLR7 (Homo sapiens, UniProt Q9NYK1); test: Human TLR7 agonist activity assay (HEK-Blue TLR7 SEAP reporter); format: cell-based; settings: HEK-Blue TLR7 cells, 18 h treatment, average where assay performed multiple times, read-out: hTLR7 Agonism EC50
T1 construct: host or cells: HEK-Blue TLR7 cells (engineered human embryonic kidney cells)
T1 sequence (Q9NYK1 27-1049): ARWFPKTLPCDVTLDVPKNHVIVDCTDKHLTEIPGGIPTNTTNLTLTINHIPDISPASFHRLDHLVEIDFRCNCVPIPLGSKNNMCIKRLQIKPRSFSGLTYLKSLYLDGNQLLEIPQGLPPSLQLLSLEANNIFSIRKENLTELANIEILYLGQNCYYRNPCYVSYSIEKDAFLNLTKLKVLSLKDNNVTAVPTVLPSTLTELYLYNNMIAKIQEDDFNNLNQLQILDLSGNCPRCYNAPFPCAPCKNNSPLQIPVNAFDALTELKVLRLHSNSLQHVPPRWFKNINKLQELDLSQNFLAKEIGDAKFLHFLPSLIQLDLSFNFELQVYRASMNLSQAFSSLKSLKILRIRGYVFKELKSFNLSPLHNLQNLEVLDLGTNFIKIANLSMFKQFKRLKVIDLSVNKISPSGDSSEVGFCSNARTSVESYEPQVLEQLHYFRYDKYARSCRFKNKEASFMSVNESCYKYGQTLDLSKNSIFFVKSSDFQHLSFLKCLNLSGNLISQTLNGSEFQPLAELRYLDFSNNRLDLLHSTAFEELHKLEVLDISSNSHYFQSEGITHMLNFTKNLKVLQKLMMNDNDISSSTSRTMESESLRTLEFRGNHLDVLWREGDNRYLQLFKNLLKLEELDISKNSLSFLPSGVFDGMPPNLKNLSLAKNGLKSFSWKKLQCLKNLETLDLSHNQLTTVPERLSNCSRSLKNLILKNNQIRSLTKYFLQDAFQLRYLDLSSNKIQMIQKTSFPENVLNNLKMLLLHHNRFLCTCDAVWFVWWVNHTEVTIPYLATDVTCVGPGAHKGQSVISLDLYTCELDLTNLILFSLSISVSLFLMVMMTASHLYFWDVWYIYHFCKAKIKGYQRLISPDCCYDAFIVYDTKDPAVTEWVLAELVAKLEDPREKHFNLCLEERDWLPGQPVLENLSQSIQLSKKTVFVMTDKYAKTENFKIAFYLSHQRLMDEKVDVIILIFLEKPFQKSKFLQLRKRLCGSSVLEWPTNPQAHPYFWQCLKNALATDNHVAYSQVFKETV
How it was run: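 HEK-Blue TLR7 cells (15,000/well) treated with compound for 18 h at 37 °C, 5% CO2. Secreted SEAP measured with Quanti-Blue, 30 min, OD 620 nm. EC50 taken as concentration giving half-maximal response between baseline and maximum.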

| SMILES | EC50 (CD69; Homo sapiens, 17 h) | EC50 (human TLR7) | EC50 (CD69; 17 hrs) |
| --- | --- | --- | --- |
| CCC[C@@H](CCO)Nc1nc(N)nc2cnn(Cc3ncc(N4CCN(CC(C)(C)O)CC4)cc3OC)c12 [Compound 172, (3S)-3-{[5-amino-1-({5-[4-(2-hydroxy-2-methylpropyl)piperazin-1-yl]-3-methoxypyridin-2-yl}methyl)-1H-pyrazolo[4,3-d]pyrimidin-7-yl]amino}hexan-1-ol] | 10.8 nM | 19.9 nM | – |
| CCC[C@@H](CCO)Nc1nc(N)nc2cnn(Cc3cnc(C4CCN(CCO)CC4)cc3OC)c12 [Compound 173, (3S)-3-{[5-amino-1-({6-[1-(2-hydroxyethyl)piperidin-4-yl]-4-methoxypyridin-3-yl}methyl)-1H-pyrazolo[4,3-d]pyrimidin-7-yl]amino}hexan-1-ol] | 4.8 nM | 89.9 nM | – |
| CCC[C@@H](CCO)Nc1nc(N)nc2cnn(Cc3cnc(C4CCN(C)CC4)cc3OC)c12 [Compound 174, (3S)-3-[(5-amino-1-{[4-methoxy-6-(1-methylpiperidin-4-yl)pyridin-3-yl]methyl}-1H-pyrazolo[4,3-d]pyrimidin-7-yl)amino]hexan-1-ol] | 2.9 nM | 11 nM | – |
| CCC[C@@H](CCO)Nc1nc(N)nc2cnn(Cc3ccc(C4CCCN4)cc3OC)c12 (stereo partly drawn) [Compound 175, (3S)-3-[(5-amino-1-{[2-methoxy-4-(pyrrolidin-2-yl)phenyl]methyl}-1H-pyrazolo[4,3-d]pyrimidin-7-yl)amino]hexan-1-ol] | 0.91 nM | 8.8 nM | – |
| CCC[C@@H](CCO)Nc1nc(N)nc2cnn(Cc3cnc(C4CCN(CC(C)(C)O)CC4)cc3OC)c12 [Compound 176, (3S)-3-{[5-amino-1-({6-[1-(2-hydroxy-2-methylpropyl)piperidin-4-yl]-4-methoxypyridin-3-yl}methyl)-1H-pyrazolo[4,3-d]pyrimidin-7-yl]amino}hexan-1-ol] | 0.21 nM | 4.8 nM | – |
| CCC[C@@H](CCO)Nc1nc(N)nc2cnn(Cc3nnc(C4CCN(C(C)C)CC4)cc3OC)c12 [Compound 177, (3S)-3-{[5-amino-1-({4-methoxy-6-[1-(propan-2-yl)piperidin-4-yl]pyridazin-3-yl}methyl)-1H-pyrazolo[4,3-d]pyrimidin-7-yl]amino}hexan-1-ol] | 9.9 nM | 579 nM | – |
| CCC[C@@H](CCO)Nc1nc(N)nc2cnn(Cc3ncc(C4CCCN4)cc3OC)c12 (stereo partly drawn) [Compound 178, (3S)-3-[(5-amino-1-{[3-methoxy-5-(pyrrolidin-2-yl)pyridin-2-yl]methyl}-1H-pyrazolo[4,3-d]pyrimidin-7-yl)amino]hexan-1-ol] | 2 nM | 279 nM | – |
| CCC[C@@H](CCO)Nc1nc(N)nc2cnn(Cc3ncc(C4CCCCN4)cc3OC)c12 (stereo partly drawn) [Compound 179, (3S)-3-[(5-amino-1-{[3-methoxy-5-(piperidin-2-yl)pyridin-2-yl]methyl}-1H-pyrazolo[4,3-d]pyrimidin-7-yl)amino]hexan-1-ol] | 2.8 nM | 235 nM | – |
| CCC[C@@H](CCO)Nc1nc(N)nc2cnn(Cc3ccc(C4CNCCN4)cc3OC)c12 (stereo partly drawn) [Compound 180, (3S)-3-[(5-amino-1-{[2-methoxy-4-(piperazin-2-yl)phenyl]methyl}-1H-pyrazolo[4,3-d]pyrimidin-7-yl)amino]hexan-1-ol] | 7.2 nM | 67.9 nM | – |
| CCC[C@@H](CCO)Nc1nc(N)nc2cnn(Cc3ccc(C4CN(CCO)CCN4)cc3OC)c12 (stereo partly drawn) [Compound 181, (3S)-3-{[5-amino-1-({4-[4-(2-hydroxyethyl)piperazin-2-yl]-2-methoxyphenyl}methyl)-1H-pyrazolo[4,3-d]pyrimidin-7-yl]amino}hexan-1-ol] | 4.57 nM | 139 nM | – |
| CCC[C@@H](CCO)Nc1nc(N)nc2cnn(Cc3ccc(C4CN(C(C)C)CCN4)cc3OC)c12 (stereo partly drawn) [Compound 182, (3S)-3-{[5-amino-1-({2-methoxy-4-[4-(propan-2-yl)piperazin-2-yl]phenyl}methyl)-1H-pyrazolo[4,3-d]pyrimidin-7-yl]amino}hexan-1-ol] | 0.28 nM | 6.8 nM | – |
| CCC[C@@H](CCO)Nc1nc(N)nc2cnn(Cc3ccc(C4CN(C(C)C)CCN4)cc3OC)c12 (stereo partly drawn) [Compound 184, (3S)-3-{[5-amino-1-({2-methoxy-4-[4-(propan-2-yl)piperazin-2-yl]phenyl}methyl)-1H-pyrazolo[4,3-d]pyrimidin-7-yl]amino}hexan-1-ol] | – | 6.5 nM | 0.15 nM |
| CCC[C@@H](CCO)Nc1nc(N)nc2cnn(Cc3nc(C4CCNCC4)ccc3OC)c12 [Compound 186, (3S)-3-[(5-amino-1-{[3-methoxy-6-(piperidin-4-yl)pyridin-2-yl]methyl}-1H-pyrazolo[4,3-d]pyrimidin-7-yl)amino]hexan-1-ol] | 242 nM | 1650 nM | – |
| CCC[C@@H](CCO)Nc1nc(N)nc2cnn(Cc3nc(C4CCN(C(=O)CN(C)C)CC4)ccc3OC)c12 [Compound 187, 1-(4-{6-[(5-amino-7-{[(3S)-1-hydroxyhexan-3-yl]amino}-1H-pyrazolo[4,3-d]pyrimidin-1-yl)methyl]-5-methoxypyridin-2-yl}piperidin-1-yl)-2-(dimethylamino)ethan-1-one] | 80.5 nM | 402 nM | – |
| CCC[C@@H](CCO)Nc1nc(N)nc2cnn(Cc3nc(C4CCN(CCO)CC4)ccc3OC)c12 [Compound 188, (3S)-3-{[5-amino-1-({6-[1-(2-hydroxyethyl)piperidin-4-yl]-3-methoxypyridin-2-yl}methyl)-1H-pyrazolo[4,3-d]pyrimidin-7-yl]amino}hexan-1-ol] | 83.7 nM | 290 nM | – |
| CCC[C@@H](CCO)Nc1nc(N)nc2cnn(Cc3nc(C4CCN(C5CCOCC5)CC4)ccc3OC)c12 [Compound 189, (3S)-3-{[5-amino-1-({3-methoxy-6-[1-(oxan-4-yl)piperidin-4-yl]pyridin-2-yl}methyl)-1H-pyrazolo[4,3-d]pyrimidin-7-yl]amino}hexan-1-ol] | 9.8 nM | 85.3 nM | – |
| CCC[C@@H](CCO)Nc1nc(N)nc2cnn(Cc3nc(C4CCN(C(C)C)CC4)ccc3OC)c12 [Compound 190, (3S)-3-{[5-amino-1-({3-methoxy-6-[1-(propan-2-yl)piperidin-4-yl]pyridin-2-yl}methyl)-1H-pyrazolo[4,3-d]pyrimidin-7-yl]amino}hexan-1-ol] | 26.7 nM | 175 nM | – |
| CCC[C@@H](CCO)Nc1nc(N)nc2cnn(Cc3nc(C4CCN(C)CC4)ccc3OC)c12 [Compound 191, (3S)-3-[(5-amino-1-{[3-methoxy-6-(1-methylpiperidin-4-yl)pyridin-2-yl]methyl}-1H-pyrazolo[4,3-d]pyrimidin-7-yl)amino]hexan-1-ol] | 35.8 nM | 221 nM | – |
| CCCCNc1nc(N)nc2cnn(Cc3cc(F)c(N4CCNCC4)cc3OC)c12 [Compound 192, N7-butyl-1-{[5-fluoro-2-methoxy-4-(piperazin-1-yl)phenyl]methyl}-1H-pyrazolo[4,3-d]pyrimidine-5,7-diamine] | 58.2 nM | 193 nM | – |
| CCCCNc1nc(N)nc2cnn(Cc3cc(F)c(N4CCN(S(C)(=O)=O)CC4)cc3OC)c12 [Compound 193, N7-butyl-1-{[5-fluoro-4-(4-methanesulfonylpiperazin-1-yl)-2-methoxyphenyl]methyl}-1H-pyrazolo[4,3-d]pyrimidine-5,7-diamine] | 529 nM | 84.9 nM | – |
| CCCCNc1nc(N)nc2cnn(Cc3cc(F)c(N4CCN(C(=O)CN5CC(OC)C5)CC4)cc3OC)c12 [Compound 194, 1-[4-(4-{[5-amino-7-(butylamino)-1H-pyrazolo[4,3-d]pyrimidin-1-yl]methyl}-2-fluoro-5-methoxyphenyl)piperazin-1-yl]-2-(3-methoxyazetidin-1-yl)ethan-1-one] | 37.1 nM | 63.1 nM | – |
| CCCCNc1nc(N)nc2cnn(Cc3cc(F)c(N4CCN(C(=O)CNC5CCOCC5)CC4)cc3OC)c12 [Compound 195, 1-[4-(4-{[5-amino-7-(butylamino)-1H-pyrazolo[4,3-d]pyrimidin-1-yl]methyl}-2-fluoro-5-methoxyphenyl)piperazin-1-yl]-2-[(oxan-4-yl)amino]ethan-1-one] | 128 nM | 53.3 nM | – |
